Reference: the supplement of paper PMC11919725

Columns and labels:
Jurkat [1] = test: metabolic activity relative to DMSO, 18 h (ratio); higher = more viable
How it was run: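 Metabolic activity was expressed relative to the mean of vehicle control wells. Jurkat cells or primary CD4+/CD8+ T cells, either naive or activated for 48 h with CD3/CD28 Dynabeads, were exposed to compound from 1 nM to 10 µM in log10 steps for 18 h at 37 °C, 5% CO2. Aliquots of 100 µl of suspension were moved to 96-well plates containing alamarBlue (10% v/v final), and fluorescence was read after 3.5 h on a FluoStar Omega at excitation 544 nm and emission 584 nm.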

Jurkat [2] = test: cytotoxicity relative to DMSO, 18 h (ratio); higher = less cell death (drugs called cytotoxic fall below 1)
How it was run: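 Cytotoxicity was measured by IncuCyte fluorescence imaging after confluency correction and normalisation to mean control values. Cells (Jurkat, or primary CD4+/CD8+ T cells that were naive or pre-activated 48 h with CD3/CD28 Dynabeads) received compound at 1 nM–10 µM in log10 steps for 18 h at 37 °C, 5% CO2. Imaging used ×10 magnification, five images per well, taken hourly over 3 h in 96-well plates with 250 nM final IncuCyte Cytotox Dye in 100 µl of suspension.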

Jurkat [3] = test: confluency relative to DMSO, 18 h (ratio); higher = more viable
How it was run: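 Jurkat or primary CD4+/CD8+ T cells (naive, or activated 48 h with CD3/CD28 Dynabeads) were treated 18 h with compound at 1 nM–10 µM (log10 steps) at 37 °C, 5% CO2. Then 100 µl of suspension went into 96-well plates with IncuCyte Cytotox Dye and alamarBlue. Confluency came from IncuCyte phase-contrast imaging (×10, five images per well, hourly over 3 h) using the Basic Analyzer. Values are normalised to mean DMSO controls.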

Row | SMILES | metabolic activity (Jurkat [1]; 1 nM) | metabolic activity (Jurkat [1]; 10 nM) | metabolic activity (Jurkat [1]; 100 nM) | metabolic activity (Jurkat [1]; 1000 nM) | metabolic activity (Jurkat [1]; 10000 nM) | cytotoxicity (Jurkat [2]; 1 nM) | cytotoxicity (Jurkat [2]; 10 nM) | cytotoxicity (Jurkat [2]; 100 nM) | cytotoxicity (Jurkat [2]; 1000 nM) | cytotoxicity (Jurkat [2]; 10000 nM) | confluency (Jurkat [3]; 1 nM) | confluency (Jurkat [3]; 10 nM) | confluency (Jurkat [3]; 100 nM) | confluency (Jurkat [3]; 1000 nM) | confluency (Jurkat [3]; 10000 nM)
1 | O=C1CCC(N2Cc3c(OCc4ccc(CN5CCOCC5)cc4)cccc3C2=O)C(=O)N1 (stereo not given) [Iberdomide] | 0.987 | 0.949 | 1.02 | 1.11 | 1.21 | 0.885 | 0.749 | 0.877 | 0.796 | 0.865 | 0.898 | 0.805 | 0.811 | 0.8 | 0.823
2 | CCC(Nc1ncnc2nc[nH]c12)c1nc2cccc(F)c2c(=O)n1-c1ccccc1 (stereo not given) [Idelalisib] | 0.825 | 0.959 | 0.958 | 0.983 | 0.993 | 1.05 | 1.08 | 1.09 | 0.927 | 1 | 1.07 | 1.09 | 1.1 | 0.986 | 1.07
3 | CC(C)CC(NC(=O)CNC(=O)c1cc(Cl)ccc1Cl)B(O)O (stereo not given) [Ixazomib] | 0.928 | 1.04 | 0.924 | 0.382 | 0.121 | 0.958 | 1 | 1.03 | 0.682 | 0.631 | 0.945 | 0.97 | 1.12 | 0.922 | 1.09
4 | Cc1cc(C)cc(C(=O)NOCCCCCC(=O)NO)c1 [LMK235] | 0.997 | 0.979 | 1.04 | 0.905 | 0.694 | 0.947 | 0.991 | 1.08 | 1.04 | 1.26 | 0.982 | 1.03 | 1.06 | 1.16 | 1.3
5 | Nc1cccc2c1CN(C1CCC(=O)NC1=O)C2=O (stereo not given) [Lenalidomide] | 0.931 | 0.895 | 0.809 | 0.905 | 0.96 | 0.945 | 0.905 | 0.96 | 0.912 | 0.892 | 0.996 | 0.912 | 0.993 | 0.96 | 0.93
6 | COc1cc(C)[nH]c(=O)c1CNC(=O)c1c(C)n(C(C)C2CCN(CC(F)(F)F)CC2)c2ccccc12 (stereo not given) [Lirametostat] | 1.01 | 1.02 | 1.01 | 1.02 | 0.856 | 1 | 1 | 1.03 | 0.972 | 0.892 | 1.01 | 1.03 | 1.02 | 0.984 | 0.929
7 | CC(C)CC(C=O)NC(=O)C(CC(C)C)NC(=O)C(CC(C)C)NC(=O)OCc1ccccc1 (stereo not given) [MG-132] | 0.799 | 0.84 | 0.938 | 0.359 | 0.11 | 0.953 | 0.939 | 0.989 | 0.471 | 0.461 | 1.01 | 0.99 | 1.02 | 0.605 | 0.69
8 | O=C(O)C1(Cc2cccc(Nc3nccs3)n2)CCC(Oc2cccc(Cl)c2F)CC1 (stereo not given) [MK-5108] | 1.02 | 1.05 | 0.922 | 0.763 | 0.756 | 0.966 | 1.05 | 0.922 | 0.881 | 0.932 | 1.01 | 1.02 | 0.89 | 0.865 | 0.868
9 | O=C(O)c1ccc(Nc2ncc3c(n2)-c2ccc(Cl)cc2C(c2c(F)cccc2F)=NC3)cc1 [MLN-8054] | 0.971 | 0.993 | 0.955 | 0.913 | 0.558 | 0.913 | 1.02 | 0.967 | 0.812 | 0.623 | 0.953 | 1.06 | 1.03 | 0.879 | 0.791
10 | CN(Cc1cnc2nc(N)nc(N)c2n1)c1ccc(C(=O)NC(CCC(=O)O)C(=O)O)cc1 (stereo not given) [Methotrexate] | 1.12 | 1.08 | 1 | 0.865 | 0.746 | 1.05 | 0.897 | 0.666 | 0.571 | 0.585 | 0.943 | 0.828 | 0.619 | 0.576 | 0.603
11 | CNC(=O)c1nn(C)c2c1C(C)(C)Cc1cnc(Nc3ccc(N4CCN(C)CC4)cc3)nc1-2 [Milciclib] | 1.05 | 0.965 | 0.953 | 0.684 | 0.809 | 0.986 | 0.958 | 0.956 | 0.794 | 0.897 | 1.01 | 0.985 | 1.01 | 0.969 | 1.01
12 | Nc1ccccc1NC(=O)c1ccc(CNc2nccc(-c3cccnc3)n2)cc1 [Mocetinostat] | 0.892 | 0.841 | 0.822 | 0.747 | 0.3 | 0.997 | 1.01 | 0.975 | 0.726 | 0.636 | 1 | 1.02 | 1 | 0.76 | 0.886
13 | CCNC(=O)CC1N=C(c2ccc(Cl)cc2)c2cc(OC)ccc2-n2c(C)nnc21 (stereo not given) [Molibresib] | 0.916 | 1.06 | 1.18 | 0.878 | 0.887 | 0.992 | 1 | 1.07 | 0.955 | 0.848 | 1.02 | 1.03 | 1.03 | 1 | 0.879
14 | O=C1C=CC(=O)C2=C1C1c3ccccc3C2c2ccccc21 [NFAT activation inhibitor III] | 1.04 | 1.04 | 1.12 | 1.01 | 0.834 | 0.945 | 0.784 | 0.732 | 1.04 | 0.839 | 1 | 0.877 | 0.804 | 0.97 | 0.864
15 | CCCCN(Cc1ccc(C(=O)NO)cc1)C(=O)Nc1ccccc1 [Nexturastat A] | 1.05 | 1.15 | 1.1 | 1.02 | 0.66 | 1.05 | 1.15 | 1.07 | 0.955 | 0.92 | 0.989 | 0.978 | 0.98 | 0.935 | 0.989
16 | COC(=O)c1ccc2c(C(=Nc3ccc(N(C)C(=O)CN4CCN(C)CC4)cc3)c3ccccc3)c(O)[nH]c2c1 [Nintedanib] | 1.01 | 0.93 | 0.949 | 0.919 | 0.827 | 0.929 | 0.948 | 0.988 | 0.81 | 0.537 | 0.986 | 0.955 | 0.981 | 0.832 | 0.566
17 | NC(=O)c1cccc2cn(-c3ccc(C4CCCNC4)cc3)nc12 (stereo not given) [Niraparib] | 0.947 | 0.907 | 1.17 | 0.992 | 1.01 | 1.11 | 1.01 | 1.1 | 1.03 | 0.94 | 1.07 | 1.04 | 1.06 | 1.05 | 0.915
18 | COC(=O)Nc1nc2ccc(C(=O)c3cccs3)cc2[nH]1 [Nocodazole] | 0.881 | 1.08 | 0.621 | 0.589 | 0.554 | 1.03 | 1.08 | 1.02 | 0.807 | 0.59 | 1.02 | 1.06 | 1.14 | 0.907 | 0.731
19 | COc1ccc(C2=NC(c3ccc(Cl)cc3)C(c3ccc(Cl)cc3)N2C(=O)N2CCNC(=O)C2)c(OC(C)C)c1 (stereo not given) [Nutlin-3] | 0.983 | 1.01 | 1.02 | 0.991 | 0.84 | 0.993 | 0.951 | 0.962 | 0.985 | 0.917 | 0.971 | 0.92 | 1.01 | 0.98 | 0.963
20 | O=C(c1cc(Cc2n[nH]c(=O)c3ccccc23)ccc1F)N1CCN(C(=O)C2CC2)CC1 [Olaparib] | 1.08 | 1.09 | 0.911 | 0.899 | 1 | 0.942 | 1.03 | 1 | 1.01 | 0.977 | 0.954 | 1.02 | 0.974 | 0.975 | 0.969
21 | COc1ncc(-c2ccc3nccc(-c4ccnnc4)c3c2)cc1NS(=O)(=O)c1ccc(F)cc1F [Omipalisib] | 1.1 | 0.966 | 0.621 | 0.524 | 0.563 | 1.04 | 0.823 | 0.728 | 0.735 | 0.923 | 0.98 | 0.797 | 0.785 | 0.904 | 1.12
22 | Nc1nc2cc(CCC3CC(n4ccc5c(N)ncnc54)C(O)C3O)ccc2cc1Br (stereo not given) [Onametostat] | 1.01 | 0.982 | 1.07 | 0.979 | 0.975 | 0.949 | 0.883 | 0.975 | 0.884 | 0.982 | 0.916 | 0.951 | 0.973 | 0.978 | 0.985
23 | COC1CCC(N2C(=O)CNc3ncc(-c4ccc(C(C)(C)O)nc4)nc32)CC1 (stereo not given) [Onatasertib] | 0.857 | 0.964 | 0.935 | 0.881 | 0.73 | 1.12 | 1.07 | 1.11 | 0.859 | 0.586 | 1.12 | 1.05 | 1.07 | 0.9 | 0.675
24 | O=C(O)C(=O)O.[NH-]C1CCCCC1[NH-].[Pt+2] (stereo not given) [Oxaliplatin] | 0.909 | 0.865 | 0.936 | 0.884 | 0.991 | 0.835 | 0.765 | 1.05 | 1.04 | 1.1 | 0.84 | 0.755 | 1.01 | 0.989 | 0.969
